Legend:
hematologic malignancies = assay: Phase 1 clinical trial of ABT-348 in subjects with hematologic malignancies, CDKN2A status of objective responders; type: in vivo, human; details: three patients assessed had deletion of CDKN2A (FIG. 2)
Source text: Three patients assessed had deletion of CDKN2A.

[1] = tested on: cycling cells in blood of patients; assay: Flow cytometry of patient blood, pharmacodynamic activity (≧4N cells); type: in vivo, human; details: patients treated with ABT-348; associated with percentage of cycling cells at baseline (FIG. 3)
Procedure: Blood of patients was added to lyse fix buffer (BD Biosciences). After lysis of red blood cells, the sample was washed, and permeabilized using Phosflow Perm/wash buffer (BD Biosciences). The sample was incubated for 15 minutes with DAPI (75 ng/mL) before analyzing on a flow cytometer.

[2] = tested on: panel of cell lines with and without CDKN2A deletion; assay: Sensitivity to Aurora kinase inhibitors in a panel of cell lines with and without CDKN2A deletion; type: cell-based; details: cell line panel (FIG. 4 bottom left, FIG. 6)
Procedure: AML cell lines were obtained from the American Type Culture Collection (ATCC; Manassas, Va.) and propagated according to ATCC recommendations.
Based on observation, it was hypothesized that patient samples with a high proportion of cells in G2/M (ie. cycling) would be sensitive to ABT-348. Therefore, a database search was performed to identify genotypes likely to overexpress Aurora kinase B given its expression is increased in M phase of cell cycle (top left). […] Data from Cancer Cell Line Encyclopedia (CCLE) supported this hypothesis (top right). Sensitivity to Aurora kinase inhibitors including ABT-348 was assessed in a panel of cell lines with and without this deletion (bottom left). […] CDKN2A status was then assessed by in situ hybridization in patient samples from ABT-348 trials. An example from one patient is shown (bottom right).

OCI-AML2 cells = assay: Drug sensitivity of OCI-AML2 cells after p16 shRNA knockdown; type: cell-based; details: p16 shRNA versus control shRNA, mimics CDKN2A deletion (FIG. 7)
Procedure: OCI AML2 cells were infected with control or three p16 shRNA from Sigma (MO). Infected cells were selected with 1 μM puromycin. After selection, cells were used in drug treatment experiments. All cells were maintained at 37° C. in 5% CO2.
One gene product of the CDKN2A locus is p16. Therefore shRNA was used to decrease p16 expression to mimic a situation of CDKN2A deletion. […] Given ABT-348 is a dual inhibitor of VEGF and Aurora kinase B inhibitors, ABT-869, which inhibits VEGF but not Aurora kinase B inhibitors was included to confirm the effect was specific to Aurora kinase B inhibitors inhibition.

Source text for solid tumors: The Y axis list best % tumor change from baseline and the X axis are % tumor cells assessed with a deletion in CDKN2A. The hashed line indicates a putative cutoff separating patients with deletion from those without. […] Threshold to define deletion is <1.2 copies.

Row | SMILES | objective response in patients with deletion of CDKN2A (hematologic malignancies) | pharmacodynamics activity [1] | sensitivity of cell lines with CDKN2A deletion versus without [2] | sensitivity of OCI-AML2 cells after p16 knockdown (silencing p16 sensitizes) (OCI-AML2 cells) | discontinuation due to toxicity (solid tumors; human, in vivo) | tumor response in patients without a CDKN2A deletion (solid tumors; solid tumors, patients without deletion (FIG. 1)) | clinical response in patients with a deletion of CDKN2A (solid tumors; solid tumors, three patients showed a deletion of CDKN2A, best % tumor change from baseline (FIG. 1))
1 | Nc1ncc(-c2cnn(CCO)c2)c2scc(-c3ccc(NC(=O)Nc4cccc(F)c4)cc3)c12 [ABT-348, 1-(4-(4-amino-7-(1-(2-hydroxyethyl)-1H-pyrazol-4-yl)thieno[3,2-c]pyridin-3-yl)phenyl)-3-(3-fluorophenyl)urea] | One patient obtained a complete response, and the others had a partial response | increase in the number of ≧4N cells | more sensitive | more sensitive | the third discontinued due to toxicity | No patient without a deletion demonstrated a tumor response | Two of these patients had a clinical response
2 | Cc1ccc(F)c(NC(=O)Nc2ccc(-c3cccc4[nH]nc(N)c34)cc2)c1 [ABT-869] |  |  |  | not |  |  | 
3 | CCN(CCCOc1ccc2c(Nc3cc(CC(=O)Nc4cccc(F)c4)n[nH]3)ncnc2c1)CCOP(=O)(O)O [AZD-1152, 2-[[3-({4-[(5-{2-[(3-Fluorophenyl)amino]-2-oxoethyl}-1H-pyrazol-3-yl)amino]-quinazolin-7-yl}oxy)propylliethyl)amino]ethyl dihydrogen phosphate] |  |  |  | more sensitive |  |  | 

From patent publication US20160153052A1, “MARKER TO PREDICT AND MONITOR RESPONSE TO AURORA KINASE B INHIBITOR THERAPY” (AbbVie Inc., priority 2014, published 2016)
